Test system: G. duodenalis BRIS/91/HEPU/1279
Test: Primary Giardia screen at 10 µM (live-cell imaging, automated counting)
Type: cell-based, Giardia duodenalis
Conditions: for % Inhibition n=1 48h / % Inhibition n=1 24h: first singlicate assay; for % Inhibition n=2 24h / % Inhibition n=2 48h: re-assessment
In short: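 Singlicate, 10 μM final, 0.2% DMSO; sealed chambers, 3% O2/5% CO2/N2. Counts by live-cell imaging at 24 h and 48 h. % growth vs vehicle, media background subtracted; Z' per plate.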

SMILES	% Inhibition n=1 48h	also measured
O=C(c1nc2nc(-c3ccco3)cc(C(F)(F)F)n2n1)N1CCCCCC1 [SN00794256]	19.8%	–
CNC(=O)N1CCC(c2nc(C)c(C(=O)NCCCOC)s2)CC1 [SN00798240]	6.4%	–
O=c1[nH]c(CN2CCCCC2)nc2scc(-c3cccs3)c12 [SN00775605]	0.0%	–
CN(C)C1(CNC(=O)COc2ccc(Br)cc2)CCCCC1 [SN00786247]	5.1%	–
Cc1ccccc1OCC(=O)N1CCN(Cc2nnc3n2CCCCC3)CC1 [SN00782472]	0.5%	–
CCOC(=O)c1sc2ncnc(Nc3cn[nH]c3)c2c1C [SN00777183]	42.7%	Average % Inhibition 24h: 0.0%; % Inhibition n=1 24h: 0.1%; % Inhibition n=2 24h: 0.0%; Average % Inhibition 48h: 30.8%; % Inhibition n=2 48h: 18.9%
CCOC(=O)c1ccc(NC(=O)c2nc(C)n(C3CCN(C(C)=O)CC3)c2C)cc1 [SN00800452]	13.2%	–
CCCNC(=O)N1CCN(Cc2nc3cccnc3n2-c2ccc(CC)cc2)CC1 [SN00796091]	0.0%	–
CCOC(=O)N1CCc2c(nc(-c3ccc(C)cc3)n(CC(=O)Nc3ccc(Cl)cc3)c2=O)C1 [SN00795497]	41.5%	–
Cc1[nH]c(C)c(S(=O)(=O)N2CCCc3ccccc32)c1C(=O)N1CCCCC1 [SN00791426]	0.0%	–
COc1cc(-c2noc(-c3cc(-c4ccco4)n[nH]3)n2)cc(OC)c1OC [SN00791289]	2.3%	–
CCc1onc(C)c1C1CCCN1C(=O)c1ccc2c(c1)OCO2 (centres unmarked) [SN00793852]	6.6%	–
O=C1OCCN1CCCN1CCCC(c2nc3ccccc3o2)C1 (centres unmarked) [SN00780555]	0.0%	–
O=C(Nc1ccc2c(c1)OCO2)C1CCN(Cc2nnnn2-c2ccccc2)CC1 [SN00776590]	4.9%	–
O=C(Cc1csc(N2CCCNC2=O)n1)Nc1ccccc1OC(F)F [SN00781228]	8.7%	–
C[C@@]1(O)CCN(C(=O)c2cccc(F)c2)C[C@H]1N1CCCC1 (relative stereo) [SN00801211]	0.0%	–
CC(=O)c1cccc(NC(=O)C2CCCN(S(=O)(=O)c3c(C)noc3C)C2)c1 (centres unmarked) [SN00784980]	0.0%	–
Cc1cccc(-c2nc3sc(N4CCCCC4)nn3c2NC(=O)C2CC2)c1 [SN00799546]	23.2%	–
NC1=Nc2nc3ccccc3n2C(c2ccc(-c3ccc(F)cc3)o2)N1 (centres unmarked) [SN00776094]	31.0%	Average % Inhibition 24h: 0.0%; % Inhibition n=1 24h: 0.0%; % Inhibition n=2 24h: 0.0%; Average % Inhibition 48h: 18.4%; % Inhibition n=2 48h: 5.8%
O=C(O)c1cccc(Nc2nc(Nc3ccccc3)nc(N3CCCC3)n2)c1 [SN00783666]	0.3%	–
O=C1c2ccccc2C(=O)N1CC(=O)n1nc(-c2cccnc2)nc1NCc1cccs1 [SN00785806]	3.6%	–
COC(=O)c1ccccc1NC(=O)Nc1ccc2[nH]c3c(c2c1)CN(C(C)C)CC3 [SN00798231]	4.3%	–
Cc1ccc(NC(=O)c2nnc(C3CCCN3C(=O)NC3CCCC3)s2)cc1 (centres unmarked) [SN00790483]	4.4%	–
COCCN1CCC(N2CCCN(C(=O)NCCc3ccccc3)CC2)C1=O (centres unmarked) [SN00802413]	1.7%	–
COc1ccc(C2=Nc3ccccc3N(CC(=O)Nc3cccc(F)c3)C(=O)C2)cc1 [SN00791795]	54.2%	Average % Inhibition 24h: 12.6%; % Inhibition n=1 24h: 25.2%; % Inhibition n=2 24h: 0.0%; Average % Inhibition 48h: 40.3%; % Inhibition n=2 48h: 26.4%

SMILES	% Inhibition n=1 48h	also measured
CCOc1cc(C(=O)Nc2ccc(C3=CSC4=NCCCN34)cc2)ccc1OC(F)F [SN00775741]	4.5%	–
O=S(=O)(c1ccc(-c2cnc(C3CC3)o2)cc1)N1CCCCC1 [SN00792043]	8.3%	–
COc1ccc(CNC(=O)c2[nH]c3cc(C)sc3c2CN2CCCC2)cc1 [SN00798517]	35.5%	–
O=C(NCC1(c2ccccc2)CCOCC1)c1ccc(Br)cc1 [SN00783501]	61.1%	Average % Inhibition 24h: 8.8%; % Inhibition n=1 24h: 16.8%; % Inhibition n=2 24h: 0.9%; Average % Inhibition 48h: 37.7%; % Inhibition n=2 48h: 14.4%
Cn1cc(-c2cc3n(n2)CCC(=O)N3CC(=O)N2CCC3(CC2)OCCO3)c2ccccc21 [SN00792412]	10.8%	–
Cn1nc(C(=O)NCCCN2CCN(c3ccccc3)CC2)c2c1-c1ccccc1OC2 [SN00787244]	0.0%	–
CCc1onc(C)c1C1CCCN1S(=O)(=O)c1ccc(CC(C)C)cc1 (centres unmarked) [SN00793887]	26.3%	–
CCc1ccc(-n2ccc(=O)c(-c3nc(-c4cccc(Cl)c4)no3)n2)cc1 [SN00798039]	4.9%	–
Cc1ccccc1C1CCN(C(=O)C2CCCC2)C1 (centres unmarked) [SN00782733]	7.3%	–
O=C(NCc1cccc(Br)c1)c1ncoc1-c1cccs1 [SN00792278]	6.4%	–
CC(=O)N1CCc2cc(C(=O)CN3CCN(c4ccc(C(F)(F)F)cc4[N+](=O)[O-])CC3)ccc21 [SN00785201]	3.8%	–
Cc1ccc(-c2noc(-c3cccn4c(=O)n(CC(=O)Nc5cc(C)ccc5C)nc34)n2)cc1 [SN00798102]	23.0%	–
O=C(Cn1c(=O)c2c(ncn2C2CCCC2)n(Cc2ccccc2)c1=O)Nc1cc(Cl)ccc1F [SN00773912]	0.0%	–
COc1ccc(OC)c(C2C(C(=O)c3ccco3)=C(O)C(=O)N2c2cc(C)on2)c1 (centres unmarked) [SN00780182]	21.6%	–
O=C(NCc1ccco1)N1CC2C3CCC(C3)C21 (centres unmarked) [SN00773389]	2.6%	–
CCCCN(CCCC)S(=O)(=O)c1ccc2c(c1)CCCC(=O)N2 [SN00788526]	27.2%	–
O=C(NCc1ccccc1Cl)[C@H]1[C@H]2C(=O)N(Cc3cccs3)C[C@]23C=C[C@H]1O3 (relative stereo) [SN00784242]	22.4%	–
CCCCS(=O)(=O)N1CCC(c2nnnn2-c2ccc(C)cc2)CC1 [SN00785962]	0.0%	–
O=C(CN1C(=O)CC2(CCCCC2)C1=O)Nc1ccc([N+](=O)[O-])cc1 [SN00777618]	47.2%	–
Clc1ccc(Nc2nc3ccccc3n3nnnc23)cc1 [SN00784679]	4.0%	–
Cc1nc(-c2ccccc2)c(C(=O)N2CCCN(S(=O)(=O)c3ccc(F)cc3)CC2)s1 [SN00778504]	9.7%	–
CCOc1ccccc1OC1CCN(c2ncnc3nc[nH]c23)CC1 [SN00780570]	31.1%	–
CCOc1cc(C2OCCn3c(-c4ccccc4)c4c(=O)n(C)c(=O)n(C)c4c32)ccc1O (centres unmarked) [SN00786012]	8.5%	–
C/C=C/c1ccc(OCC(=O)N2CCCN(C(=O)C3CCCC3)CC2)c(OC)c1 [SN00771493]	16.5%	–
CCCn1nccc1-c1csc(S(=O)(=O)NC(C)C)c1 [SN00797311]	9.7%	–

SMILES	% Inhibition n=1 48h	also measured
Cc1cccc(C2=NC3(CCN(C(=O)NC4CCCCC4)CC3)NC2=O)c1 [SN00792717]	13.8%	–
CC(=O)c1ccc(Nc2ncnc3c2c(C)c(C)n3-c2ccccc2)cc1 [SN00789011]	48.7%	–
O=C(/C=C/c1cccc([N+](=O)[O-])c1)Nc1ccc2c(c1)nc1n2CCCCC1 [SN00770035]	0.0%	–
O=C(Nc1ccnn1Cc1ccccn1)c1cccnc1Oc1ccccc1 [SN00775947]	2.6%	–
Cc1nnc(C2Cc3ccccc3CN2CCOc2ccc(F)cc2)o1 (centres unmarked) [SN00783149]	0.0%	–
COc1ccc(C(=O)Nc2cc(-c3nc(C)cs3)sc2C)cc1OC [SN00798474]	27.2%	–
CCCn1cc(S(=O)(=O)c2ccc(OC)cc2)c(=O)c2cc(F)c(N3CCC(C)CC3)cc21 [SN00787795]	0.0%	–
CCC(=O)N1CCCc2ccc(NS(=O)(=O)c3ccc(F)c(C)c3)cc21 [SN00792263]	17.5%	–
Cc1ccc(C)c(S(=O)(=O)Nc2ccc3nnc(-c4ccccc4)n3n2)c1 [SN00795461]	0.0%	–
CCCNC1=C(C(=O)Nc2ccc(F)cc2)S(=O)(=O)c2ccccc21 [SN00794224]	46.5%	–
Cc1ccc2c(c1)N=C(c1ccc(C)o1)N=C(c1cccs1)N2 [SN00785905]	69.6%	Average % Inhibition 24h: 15.2%; % Inhibition n=1 24h: 22.4%; % Inhibition n=2 24h: 8.0%; Average % Inhibition 48h: 54.6%; % Inhibition n=2 48h: 39.6%
Cc1ccccc1Nc1nc(N)nc(CN2C(=O)NC(C)(c3cccc4ccccc34)C2=O)n1 (centres unmarked) [SN00773551]	21.3%	–
CCN(c1ccccc1)S(=O)(=O)c1ccc2[nH]cc(C(=O)NCCOC)c(=O)c2c1 [SN00794693]	10.4%	–
O=C(NC1CC1)c1cnn2c(-c3ccccn3)ccnc12 [SN00795482]	0.0%	–
CCn1c(=O)c(=O)n(CC(=O)NCc2ccc(SC)cc2)c2ccccc21 [SN00792977]	16.0%	–
CCC1c2cccn2-c2ccccc2CN1C(=O)NCCc1ccccc1 (centres unmarked) [SN00791262]	18.8%	–
Cc1cc(C)n2nc(C(=O)N3CCCC(n4cncn4)C3)nc2n1 (centres unmarked) [SN00775270]	8.1%	–
CCN1CCN(C(=O)c2ccc(N3CCCC3=O)cc2)CC1 [SN00784919]	8.8%	–
Cc1ccc(CNc2nc(-c3ccco3)nn2C(=O)C(C)C)cc1 [SN00786221]	11.1%	–
CCOc1ccc(N/C(=N\S(C)(=O)=O)Nc2cc(C)c(Cl)cc2OC)cc1 [SN00795110]	18.1%	–
O=C(c1cnccn1)N1CCN(C(=O)C2CCCC2)CC1 [SN00774707]	8.7%	–
CN(C[C@@]12CCC[C@H]1N(C)C(=O)CC2)C(=O)c1ccc2c(c1)OCO2 (relative stereo) [SN00801319]	28.7%	–
COc1ccc(NC(=O)c2cc(C(F)(F)F)n(C)n2)cc1 [SN00786766]	0.0%	–
